The record followed here is patent US10369138B2, “Monobactam organic compounds for the treatment of bacterial infections” (Novartis AG, priority 2014, dated 2019).

In brackets after ≈: the same amount, converted by molar mass. Read-outs that look alike come from different tables or passages of the source.

One assay relates to E. coli containing KPC-2. In words: MIC by broth microdilution, E. coli containing KPC-2 (Ec KPC2 Iso). The format is cell-based. The conditions noted are these: Escherichia coli, read-out: Ec KPC2 Iso (MIC), E. coli containing KPC-2 (carbapenemase from Klebsiella pneumoniae). A digest of the protocol: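 Host E. coli BW25113 pspB carrying multicopy pBAD18-kan plasmid with constitutive TEM-promoter KPC-2 expression (periplasmic signal sequence); broth microdilution per CLSI in cation-adjusted Mueller-Hinton broth, inoculum ~5×10^5 CFU/mL, compounds twofold serially diluted from DMSO masters (10% DMSO in dilution series added).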
On the technique in general: Dilution methods test growth across graded concentrations, often in twofold steps.

Another assay concerns E. coli strain 25922. Description: MIC by broth microdilution, E. coli strain 25922. The format is cell-based. In short, it runs like this:
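CLSI broth microdilution in cation-adjusted Mueller-Hinton broth, inoculum about 5×10^5 CFU/mL, 10% DMSO from the diluted series, 20 h at 35-37° C. MIC is the lowest concentration preventing visible growth, read by eye and at 600 nm.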

The mark [1] stands for this setting: Escherichia coli, 25922, E. coli strain 25922, read-out: Ec 25922 (MIC).

In the case of `NCC(=O)NCc1cnn(C[C@@H]2[C@H](NC(=O)/C(=N\OC3(C(=O)O)CC3)c3csc(N)n3)C(=O)N2S(=O)(=O)O)n1` [Example 134, 1-(((Z)-(2-(((2R,3S)-2-((4-((2-aminoacetamido)methyl)-2H-1,2,3-triazol-2-yl)methyl)-4-oxo-1-sulfoazetidin-3-yl)amino)-1-(2-aminothiazol-4-yl)-2-oxoethylidene)amino)oxy)cyclopropanecarboxylic acid], the MIC (commonly the smallest concentration in the dilution series that meets the test's criterion for growth inhibition) was 0.25 µg/mL (≈ 0.426 µM) with E. coli containing KPC-2 and 0.5 µg/mL (≈ 0.852 µM) with E. coli strain 25922 (setting [1]).
Consider `CC(C)(O/N=C(\C(=O)N[C@@H]1C(=O)N(S(=O)(=O)O)[C@@H]1CN1CCNC1=O)c1csc(N)n1)C(=O)O` [Example 3, 2-(((Z)-(1-(2-aminothiazol-4-yl)-2-oxo-2-(((3S,4R)-2-oxo-4-((2-oxoimidazolidin-1-yl)methyl)-1-sulfoazetidin-3-yl)amino)ethylidene)amino)oxy)-2-methylpropanoic acid], for which the minimal inhibitory concentration (MIC) in the assay on E. coli containing KPC-2 was found to be 1 µg/mL (≈ 1.92 µM); in the assay with E. coli strain 25922 (setting [1]) it was 2 µg/mL (≈ 3.85 µM).
On to `NCCNC[C@@H]1CN(C[C@@H]2[C@H](NC(=O)/C(=N\OC3(C(=O)O)CC3)c3csc(N)n3)C(=O)N2S(=O)(=O)O)C(=O)O1` [Example 97, 1-(((Z)-(2-(((2R,3S)-2-(((R)-5-(((2-aminoethyl)amino)methyl)-2-oxooxazolidin-3-yl)methyl)-4-oxo-1-sulfoazetidin-3-yl)amino)-1-(2-aminothiazol-4-yl)-2-oxoethylidene)amino)oxy)cyclopropanecarboxylic acid], for which the MIC was 0.125 µg/mL (≈ 0.212 µM) with E. coli containing KPC-2 and 0.125 µg/mL (≈ 0.212 µM) in the assay on E. coli strain 25922 (Escherichia coli, 25922, read-out: Ec 25922 (MIC)).
For `N=C(NC1CCNCC1)c1ccc(OC[C@H](O/N=C(\C(=O)N[C@@H]2C(=O)N(S(=O)(=O)O)[C@@H]2Cn2cncn2)c2csc(N)n2)C(=O)O)cn1` [Example 79, (S)-2-(((Z)-(2-(((2R,3S)-2-((1H-1,2,4-triazol-1-yl)methyl)-4-oxo-1-sulfoazetidin-3-yl)amino)-1-(2-aminothiazol-4-yl)-2-oxoethylidene)amino)oxy)-3-((6-(N-(piperidin-4-yl)carbamimidoyl)pyridin-3-yl)oxy)propanoic acid], the MIC in the assay on E. coli containing KPC-2 and in the assay on E. coli strain 25922 (setting [1]) was 0.25 µg/mL (≈ 0.354 µM) throughout.
As to `Nc1nc(/C(=N/OC2(C(=O)O)CC2)C(=O)N[C@@H]2C(=O)N(S(=O)(=O)O)[C@@H]2Cn2cncn2)cs1` [Example 18, 1-(((Z)-(2-(((2R,3S)-2-((1H-1,2,4-triazol-1-yl)methyl)-4-oxo-1-sulfoazetidin-3-yl)amino)-1-(2-aminothiazol-4-yl)-2-oxoethylidene)amino)oxy)cyclopropanecarboxylic acid], the results for the MIC with E. coli containing KPC-2 and in the assay with E. coli strain 25922 (setting [1]) were 0.25 µg/mL (≈ 0.5 µM) and 0.5 µg/mL (≈ 0.999 µM), respectively.
`CC(C)(O/N=C(\C(=O)N[C@@H]1C(=O)N(S(=O)(=O)O)[C@@H]1CN1CCN(CCN)C1=O)c1csc(N)n1)C(=O)O` [Example 70, 2-(((Z)-(2-(((2R,3S)-2-((3-(2-aminoethyl)-2-oxoimidazolidin-1-yl)methyl)-4-oxo-1-sulfoazetidin-3-yl)amino)-1-(2-aminothiazol-4-yl)-2-oxoethylidene)amino)oxy)-2-methylpropanoic acid]: the MIC in the assay on E. coli containing KPC-2 and in the assay on E. coli strain 25922 (setting [1]) was 8 µg/mL (≈ 14.2 µM) in each case.
Take `NCCCNCc1cnn(C[C@@H]2[C@H](NC(=O)/C(=N\OC3(C(=O)O)CC3)c3csc(N)n3)C(=O)N2S(=O)(=O)O)n1` [Example 90, 1-(((Z)-(2-(((2R,3S)-2-((4-(((3-aminopropyl)amino)methyl)-2H-1,2,3-triazol-2-yl)methyl)-4-oxo-1-sulfoazetidin-3-yl)amino)-1-(2-aminothiazol-4-yl)-2-oxoethylidene)amino)oxy)cyclopropanecarboxylic acid]: the MIC in the assay with E. coli containing KPC-2 and with E. coli strain 25922 (setting [1]) was 0.25 µg/mL (≈ 0.426 µM) in each case.
Turning to `N=C(NCCN)NCc1cnn(C[C@@H]2[C@H](NC(=O)/C(=N\OC3(C(=O)O)CC3)c3csc(N)n3)C(=O)N2S(=O)(=O)O)n1` [Example 129, 1-(((Z)-(2-(((2R,3S)-2-((4-((3-(2-aminoethyl)guanidino)methyl)-2H-1,2,3-triazol-2-yl)methyl)-4-oxo-1-sulfoazetidin-3-yl)amino)-1-(2-aminothiazol-4-yl)-2-oxoethylidene)amino)oxy)cyclopropanecarboxylic acid], the MIC turned out to be 1 µg/mL (≈ 1.63 µM) in the assay on E. coli containing KPC-2 and 0.5 µg/mL (≈ 0.814 µM) with E. coli strain 25922 (setting [1]).
In the same order, the values of `Cc1nn(C[C@@H]2[C@H](NC(=O)/C(=N\OC3(C(=O)O)CC3)c3csc(N)n3)C(=O)N2S(=O)(=O)O)nc1CN` [Example 143, 1-(((Z)-(2-(((2R,3S)-2-((4-(aminomethyl)-5-methyl-2H-1,2,3-triazol-2-yl)methyl)-4-oxo-1-sulfoazetidin-3-yl)amino)-1-(2-aminothiazol-4-yl)-2-oxoethylidene)amino)oxy)cyclopropanecarboxylic acid] are 0.25 µg/mL (≈ 0.46 µM) and 0.5 µg/mL (≈ 0.92 µM).
Take `N=C(NCc1cnn(C[C@@H]2[C@H](NC(=O)/C(=N\OC3(C(=O)O)CC3)c3csc(N)n3)C(=O)N2S(=O)(=O)O)n1)N[C@@H]1CCNC1` (stereo in doubt) [Example 142, 1-(((Z)-(1-(2-aminothiazol-4-yl)-2-oxo-2-(((3S,4R)-2-oxo-4-((4-((3-(®-pyrrolidin-3-yl)guanidino)methyl)-2H-1,2,3-triazol-2-yl)methyl)-1-sulfoazetidin-3-yl)amino)ethylidene)amino)oxy)cyclopropanecarboxylic acid]: the figures for the minimum inhibitory concentration (MIC) in the assay on E. coli containing KPC-2 and in the assay on E. coli strain 25922 (setting [1]) were 0.25 µg/mL (≈ 0.39 µM) and 0.5 µg/mL (≈ 0.78 µM), respectively.
Taken in the same sequence, the figures for `N=C(N[C@H]1CCNC1)c1ccc(OC[C@H](O/N=C(\C(=O)N[C@@H]2C(=O)N(S(=O)(=O)O)[C@@H]2Cn2cncn2)c2csc(N)n2)C(=O)O)cc1` [Example 71, (S)-2-(((Z)-(2-(((2R,3S)-2-((1H-1,2,4-triazol-1-yl)methyl)-4-oxo-1-sulfoazetidin-3-yl)amino)-1-(2-aminothiazol-4-yl)-2-oxoethylidene)amino)oxy)-3-(4-(N—((S)-pyrrolidin-3-yl)carbamimidoyl)phenoxy)propanoic acid] were 0.25 µg/mL (≈ 0.361 µM) and 0.25 µg/mL (≈ 0.361 µM).
In the same order, the values of `CC(C)(O/N=C(\C(=O)N[C@@H]1C(=O)N(S(=O)(=O)O)[C@@H]1CN1CCN/C1=N\C#N)c1csc(N)n1)C(=O)O` [Example 40, 2-(((Z)-(1-(2-aminothiazol-4-yl)-2-(((2R,3S)-2-(((E)-2-(cyanoimino)imidazolidin-1-yl)methyl)-4-oxo-1-sulfoazetidin-3-yl)amino)-2-oxoethylidene)amino)oxy)-2-methylpropanoic acid] are 2 µg/mL (≈ 3.68 µM) and 2 µg/mL (≈ 3.68 µM).
In the same order, the values of `CC(C)(O/N=C(\C(=O)N[C@@H]1C(=O)N(S(=O)(=O)O)[C@@H]1Cn1cncn1)c1csc(N)n1)C(=O)O` [Example 9, 2-(((Z)-(2-(((2R,3S)-2-((1H-1,2,4-triazol-1-yl)methyl)-4-oxo-1-sulfoazetidin-3-yl)amino)-1-(2-aminothiazol-4-yl)-2-oxoethylidene)amino)oxy)-2-methylpropanoic acid] are 1 µg/mL (≈ 1.99 µM) and 1 µg/mL (≈ 1.99 µM).
Take `N=C(NCc1cnn(C[C@@H]2[C@H](NC(=O)/C(=N\OC3(C(=O)O)CC3)c3csc(N)n3)C(=O)N2S(=O)(=O)O)n1)N[C@H]1CCNC1` [Example 141, 1-(((Z)-(1-(2-aminothiazol-4-yl)-2-oxo-2-(((3S,4R)-2-oxo-4-((4-((3-((S)-pyrrolidin-3-yl)guanidino)methyl)-2H-1,2,3-triazol-2-yl)methyl)-1-sulfoazetidin-3-yl)amino)ethylidene)amino)oxy)cyclopropanecarboxylic acid]: the MIC in the assay on E. coli containing KPC-2 and in the assay on E. coli strain 25922 (setting [1]) was 0.5 µg/mL (≈ 0.78 µM) in each case.
For the molecule `CC(C)(O/N=C(\C(=O)N[C@@H]1C(=O)N(S(=O)(=O)O)[C@@H]1Cn1ncnc1CN)c1csc(N)n1)C(=O)O` [Example 12, 2-(((Z)-(2-(((2R,3S)-2-((5-(aminomethyl)-1H-1,2,4-triazol-1-yl)methyl)-4-oxo-1-sulfoazetidin-3-yl)amino)-1-(2-aminothiazol-4-yl)-2-oxoethylidene)amino)oxy)-2-methylpropanoic acid], the MIC with E. coli containing KPC-2 and in the assay with E. coli strain 25922 (setting [1]) was 4 µg/mL (≈ 7.53 µM) in each case.
Turning to `N=C(NCCCN)NCc1cnn(C[C@@H]2[C@H](NC(=O)/C(=N\OC3(C(=O)O)CC3)c3csc(N)n3)C(=O)N2S(=O)(=O)O)n1` [Example 119, 1-(((Z)-(2-(((2R,3S)-2-((4-((3-(3-aminopropyl)guanidino)methyl)-2H-1,2,3-triazol-2-yl)methyl)-4-oxo-1-sulfoazetidin-3-yl)amino)-1-(2-aminothiazol-4-yl)-2-oxoethylidene)amino)oxy)cyclopropanecarboxylic acid], the minimum inhibitory concentration (MIC) in the assay with E. coli containing KPC-2 and in the assay with E. coli strain 25922 (setting [1]) was 0.25 µg/mL (≈ 0.398 µM) throughout.
As for `CC(C)(O/N=C(\C(=O)N[C@@H]1C(=O)N(S(=O)(=O)O)[C@@H]1Cn1cnc(CN)n1)c1csc(N)n1)C(=O)O` [Example 10, 2-(((Z)-(2-(((2R,3S)-2-((3-(aminomethyl)-1H-1,2,4-triazol-1-yl)methyl)-4-oxo-1-sulfoazetidin-3-yl)amino)-1-(2-aminothiazol-4-yl)-2-oxoethylidene)amino)oxy)-2-methylpropanoic acid], the MIC worked out at 11 µg/mL (≈ 20.7 µM) in the assay on E. coli containing KPC-2 and 4 µg/mL (≈ 7.53 µM) in the assay with E. coli strain 25922 (setting [1]).
In the same order, the values of `Nc1nc(/C(=N/OC2(C(=O)O)CC2)C(=O)N[C@@H]2C(=O)N(S(=O)(=O)O)[C@@H]2Cn2ncc(CNCC3CNC3)n2)cs1` [Example 85, 1-(((Z)-(1-(2-aminothiazol-4-yl)-2-(((2R,3S)-2-((4-(((azetidin-3-ylmethyl)amino)methyl)-2H-1,2,3-triazol-2-yl)methyl)-4-oxo-1-sulfoazetidin-3-yl)amino)-2-oxoethylidene)amino)oxy)cyclopropanecarboxylic acid] are 0.5 µg/mL (≈ 0.835 µM) and 0.5 µg/mL (≈ 0.835 µM).
